# From publication PMC11412900 (Molecular Psychiatry, 2024)
# Where two headings read alike, the source gives them in different places.
# Tests used:
# SERT [1] = molecular target: T1, SERT (Homo sapiens, UniProt P31645); assay: Batch release of preloaded [3H]5-HT from HEK293 cells expressing SERT; format: cell-based; settings: for 5-HT release at SERT: with or without monensin 10 µM; for 5-HT releasing activity: with or without monensin, pCA as positive control
# T1 construct: YFP (yellow-fluorescent protein); expressed in transfected cells
# Experimental: Batch release is a functional radiometric assay to assess transporter-mediated efflux. […] Subsequently, cells were washed three times with KHB and equilibrated for 10 min in KHB or KHB+monensin (10 µM). […] 10 µM pCA and 0.05 µM paroxetine were used as positive and negative controls, respectively. Liquid scintillation cocktail was added both to the wells containing cells (200 µL) and to the transferred supernatant (100 µL). Total radioactivity determined from/in the remaining lysate of the cells plus the transferred supernatant was set as 100%, and the radioactivity determined in each fraction was expressed as a percentage thereof. Assays were performed per duplicate for five independent experiments.
# [2] = system: core body temperature in mice; assay: Core body temperature measurement; format: in vivo; settings: mice, i.p., 60 min after injection
# Experimental: Rectal temperature of mice (N = 8–10 per group) was measured 60 min after i.p. injection of the corresponding compound (see previous section “Head twitch response”). This time point was chosen according to the maximal effect observed in pilot experiments. A thermocouple probe (YS451, Panlab, Barcelona, Spain) connected to a digital thermometer (TMP812RS, Panlab, Barcelona, Spain) was inserted 2 cm into the rectum and steady temperature readout was obtained after 10 s of insertion.
# Data were expressed as means±standard deviation (SD). Competition, release and functional assays, and substrate-induced current curves were plotted and fitted by non-linear regression to obtain the IC50, EC50, and Emax values. For behavioral studies, data were fitted by non-linear regression and pED50 and Emax values (with the corresponding 95% CI) were estimated by means of a software (GraphPad Prism 10) that further extrapolates the data. The Cheng-Prusoff equation was used to calculate Ki (affinity): Ki = […]/(1 + [radioligand-concentration/Kd]). HTR curves were fitted using a Gaussian equation as described. Data from batch release assays were statistically analyzed with a mixed-effects model, employing Šidák’s correction for multiple comparisons. Total release at each concentration and the behavioral experiments with the corresponding antagonists were statistically analyzed using one-way ANOVA, followed by Tukey’s post-hoc test. Molecular volume (van der Waals) was calculated using a grid approximation (spacing 0.75 Å). logP was calculated using Molinspiration Cheminformatics software. For in vivo studies, one-way ANOVA with Dunnet’s post-hoc test was used to compare all conditions to saline in dose-response experiments when data were normally distributed. Otherwise, a non-parametric test (Kruskall-Wallis with Dunn’s post-hoc test) was used. Alpha was set at 0.05. Outliers were excluded following ROUT’s method (Q = 0.1%). All statistical analyses and Pearson correlations were conducted using GraphPad Prism 10 software (GraphPad software, San Diego, CA, USA).
# h5-HT1AR = molecular target: T2, h5-HT1AR (Homo sapiens, UniProt P08908); assay: Radioligand binding, [3H]8-OH-DPAT displacement
# T2 construct: purchased Perkin Elmer, Inc. (Waltham, MA, USA)
# T2 sequence (P08908 1-422): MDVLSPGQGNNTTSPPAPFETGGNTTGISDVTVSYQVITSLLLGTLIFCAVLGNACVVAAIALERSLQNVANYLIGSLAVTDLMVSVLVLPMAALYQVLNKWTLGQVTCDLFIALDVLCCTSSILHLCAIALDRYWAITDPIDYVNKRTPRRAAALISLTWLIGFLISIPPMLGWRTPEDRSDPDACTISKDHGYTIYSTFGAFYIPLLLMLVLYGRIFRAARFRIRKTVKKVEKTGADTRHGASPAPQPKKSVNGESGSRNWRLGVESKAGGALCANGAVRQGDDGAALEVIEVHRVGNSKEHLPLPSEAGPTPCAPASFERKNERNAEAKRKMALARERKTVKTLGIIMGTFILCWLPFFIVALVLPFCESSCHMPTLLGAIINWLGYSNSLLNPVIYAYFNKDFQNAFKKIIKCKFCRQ
# Experimental: Binding assays were performed as described previously. Briefly, membrane preparations expressing h5-HT1AR, h5-HT2AR or hSERT (see Supplementary Material) were incubated with radiolabeled selective ligands 0.4 nM [^3H]8-OH-DPAT, 1 nM [^3H]ketanserin or 3 nM [^3H]imipramine, respectively. The drugs were diluted in the corresponding binding buffer and tested at increasing concentrations in duplicate. Binding reactions were performed in tubes containing the drug dilutions; 25 μl of the corresponding radioligand; and the membranes (10 μg and 5 μg/500 μL for 5-HT1AR and 5-HT2AR, respectively, and 15 μg/100 μL for hSERT), all diluted in binding buffer. […] Incubation was performed for 1 h at 27 °C for 5-HT1A/2AR and 22 °C for hSERT, according to the manufacturer’s protocol (Perkin Elmer, Inc., Waltham, MA, USA) and previous studies - saturation and kinetic experiments, respectively. The binding reactions were stopped by rapid filtration through GF/B glass microfiber filters pre-soaked with 0.5% polyethyleneimine and washing with ice-cold wash buffer. The filters were placed into vials and scintillation cocktail was added. The trapped radioactivity was quantified. Specific binding was defined as the difference between total binding (binding buffer alone) and non-specific binding. Experiments were conducted per duplicate for at least three independent experiments.
# SERT [3] = molecular target: T1, SERT; assay: Whole-cell patch clamp, transporter-mediated currents in HEK293 cells; format: cell-based; settings: for EC50: clamped at −60 mV, N = 5, read-out: SERT-mediated inward current EC50; for SERT-mediated inward current Emax: normalized to current elicited by 5-HT 10 µM; for SERT substrate type: whole-cell patch clamp
# Description: Whole-cell patch clamping was used to measure the transporter-mediated currents and performed as previously described. […] Cells were continuously superfused by a DAD-12 superfusion system and an 8-tube perfusion manifold (ALA Scientific Instruments in Farmingdale, NY, USA), which allowed to apply a physiological external solution. The pipette solution mimics the internal ionic composition of a cell. […] Passive holding currents were subtracted, and the traces were filtered using a 50-Hz digital Gaussian low-pass filter for analysis purposes. Five independent experiments were performed.
# SERT [4] = molecular target: T1, SERT; assay: Superfusion release assay of [3H]5-HT; format: cell-based
# Experimental: Concentration-response release assays were performed using a superfusion assay. […] Afterwards, cells were manually and gently washed once with KHB, and superfused with KHB at a rate of 0.5 mL/min for 10 min at room temperature (RT), to establish a stable basal release. Three 2 min-fractions of basal release were collected in 10 mL counting vials before exposing cells to various concentrations of 5-MeO-pyr-T (five fractions). Subsequently, the cells were superfused with 1% SDS for three final fractions to determine total radioactivity present at cells at the end of the experiment. 2 mL of scintillation cocktail was added to each vial, radioactivity was measured and expressed as percentage of released radioactivity in relation to the total radioactivity present at the beginning of that fraction. Experiments were performed per triplicate for five independent experiments.
# [5] = 0.4 nM [3H]8-OH-DPAT, N ≥ 3, read-out: 5-HT1AR Ki ± SD
# T1 sequence (P31645 whole entry): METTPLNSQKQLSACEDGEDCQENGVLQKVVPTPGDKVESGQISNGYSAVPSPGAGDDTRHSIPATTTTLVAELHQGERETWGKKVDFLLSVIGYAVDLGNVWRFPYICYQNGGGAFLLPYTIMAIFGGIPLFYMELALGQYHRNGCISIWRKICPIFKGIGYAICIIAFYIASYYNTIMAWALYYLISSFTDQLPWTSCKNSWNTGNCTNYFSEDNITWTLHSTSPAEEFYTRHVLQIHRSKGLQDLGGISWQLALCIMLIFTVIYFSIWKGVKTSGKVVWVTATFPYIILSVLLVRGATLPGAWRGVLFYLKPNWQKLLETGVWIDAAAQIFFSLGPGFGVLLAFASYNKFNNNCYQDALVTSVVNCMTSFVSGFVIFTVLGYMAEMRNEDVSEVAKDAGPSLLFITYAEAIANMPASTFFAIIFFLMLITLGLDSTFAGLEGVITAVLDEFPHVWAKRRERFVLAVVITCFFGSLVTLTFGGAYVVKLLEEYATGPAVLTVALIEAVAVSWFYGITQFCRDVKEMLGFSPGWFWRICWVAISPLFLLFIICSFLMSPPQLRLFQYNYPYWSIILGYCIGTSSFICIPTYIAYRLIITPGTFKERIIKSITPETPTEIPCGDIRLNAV
SMILES,5-HT release at SERT (SERT [1]),Change in body temperature ED50 [2],Ki (h5-HT1AR; [5]),5-HT releasing activity (SERT [1]),EC50 (SERT [3]),SERT-mediated inward current Emax (SERT [3]),SERT substrate type (SERT [3]),"ED50 ([2]; Mus musculus, ip, 1 h, read-out: Change in body temperature ED50)",Ki (h5-HT1AR),5-HT releaser type (SERT [4]; peak of efflux vs positive control pCA),"EC50 (SERT [4]; read-out: 5-HT release EC50, superfusion, N = 5)"
CCN(CCc1c[nH]c2ccc(OC)cc12)C(C)C [5-MeO-EIPT],< 10 % total cpm,15.0 mg/kg,18.4 ± 8.4 nM,–,–,–,–,–,–,–,–
COc1ccc2[nH]cc(CCN(C)C(C)C)c2c1 [5-MeO-MIPT],< 10 % total cpm,14.8 mg/kg,24.8 ± 7.6 nM,slight to none 5-HT releasing activity,–,–,–,–,–,–,–
CCN(C)CCc1c[nH]c2ccc(OC)cc12 [5-MeO-MET],–,4.76 mg/kg,3.11 ± 0.51 nM,capable of evoking 5-HT release,13000 nM,0.46,partial SERT substrates,–,–,–,–
"COc1ccc2[nH]cc(CCN(C(C)C)C(C)C)c2c1 [5-MeO-DIPT, 5-methoxy-N,N-diisopropyltryptamine]",–,–,–,slight to none 5-HT releasing activity,–,–,–,14.8 mg/kg,15.8 ± 1.3 nM,–,–
CCN(CC)CCc1c[nH]c2ccc(OC)cc12 [5-MeO-DET],–,7.18 mg/kg,4.93 ± 0.62 nM,capable of evoking 5-HT release,3500 nM,0.26,partial SERT substrates,–,–,–,–
C=CCN(CC=C)CCc1c[nH]c2ccc(OC)cc12 [5-MeO-DALT],–,13.6 mg/kg,3.26 ± 0.39 nM,slight to none 5-HT releasing activity,–,–,–,–,–,–,–
COc1ccc2[nH]cc(CCN3CCCC3)c2c1 [5-MeO-pyr-T],–,2.89 mg/kg,0.577 ± 0.195 nM,capable of evoking 5-HT release,90 nM,0.49,partial SERT substrates,–,–,5-HT partial releaser,5700 ± 1590 nM
